Measured values from patent US8715529B1, “Synthesis and applications of triazaborolopyridinium compounds and substituted triazaborolopyridinium compounds and methods of use” (Arrowhead Center, Inc., priority 2012, dated 2014).
pEC50: −log10 of the molar value.

How the values were obtained:
[1] = Octanol/water partition coefficient (Log Po/w); assay type: physicochemical
HeLa cells = assay: Live imaging of HeLa cells treated with MSTLC probes; assay type: cell-based; details: mitotic HeLa cells
[2] = biological target: T1, human kinesin Eg5 motor protein (Homo sapiens, UniProt P52732); assay: Monopolar spindle formation in HeLa cells treated with MSTLC probes (fixed, tubulin/DNA staining); assay type: cell-based; details: read-out: EC50, monopolar spindles / block of bipolar spindle
T1 construct: endogenous in cells; host or cells: HeLa cells
T1 sequence (P52732 1-1056): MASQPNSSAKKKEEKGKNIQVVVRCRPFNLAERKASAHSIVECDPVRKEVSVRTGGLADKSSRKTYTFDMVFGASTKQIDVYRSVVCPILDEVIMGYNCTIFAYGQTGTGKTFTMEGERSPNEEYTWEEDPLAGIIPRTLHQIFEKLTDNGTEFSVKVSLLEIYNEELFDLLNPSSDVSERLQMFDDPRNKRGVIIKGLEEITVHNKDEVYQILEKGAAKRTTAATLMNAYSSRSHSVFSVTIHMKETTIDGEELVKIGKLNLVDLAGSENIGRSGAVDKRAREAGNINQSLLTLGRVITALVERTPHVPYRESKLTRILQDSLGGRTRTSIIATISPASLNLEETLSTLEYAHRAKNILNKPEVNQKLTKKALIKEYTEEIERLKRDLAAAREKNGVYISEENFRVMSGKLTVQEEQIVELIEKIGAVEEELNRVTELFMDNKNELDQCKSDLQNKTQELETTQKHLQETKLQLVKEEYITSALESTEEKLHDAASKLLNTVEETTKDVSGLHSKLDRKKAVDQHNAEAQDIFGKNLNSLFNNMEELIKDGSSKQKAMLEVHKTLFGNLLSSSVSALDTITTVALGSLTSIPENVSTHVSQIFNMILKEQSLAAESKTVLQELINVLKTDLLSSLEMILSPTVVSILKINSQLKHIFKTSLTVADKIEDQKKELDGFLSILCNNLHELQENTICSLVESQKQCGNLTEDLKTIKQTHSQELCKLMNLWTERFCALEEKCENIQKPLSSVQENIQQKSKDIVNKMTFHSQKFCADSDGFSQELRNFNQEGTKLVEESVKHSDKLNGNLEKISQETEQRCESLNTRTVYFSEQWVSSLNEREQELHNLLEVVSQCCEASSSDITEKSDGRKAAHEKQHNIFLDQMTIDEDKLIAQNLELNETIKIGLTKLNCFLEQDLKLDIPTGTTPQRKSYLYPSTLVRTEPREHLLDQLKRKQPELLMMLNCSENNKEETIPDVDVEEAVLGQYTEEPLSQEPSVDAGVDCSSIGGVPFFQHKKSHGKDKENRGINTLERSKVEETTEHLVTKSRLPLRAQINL
Experimental: The inhibitory activity of human kinesin Eg5 motor protein was tested using probes 3.3, 3.5 and 413. HeLa cells were treated with 10 μM of each probe, as well as the unconjugated inhibitor Methoxy-S-Trityl-L-cysteine. Then cells were incubated with anti-α tubulin 1:1000 primary antibody, AlexaFluor-546 conjugated rabbit anti-mouse secondary antibody and Hoechst 33342 for staining microtubules and DNA respectively. Cells were subsequently washed and mounted onto glass sides with 90% glycerol and imaged using a Zeiss Axiovert 200M inverted microscope outfitted with epifluorescence optics, and a Zeiss Apotome structured illumination module.

[3] = tested on: estrogen receptor (ER)-dependent promoter; assay: Invitrogen SelectScreen Profiling Service, ER-mediated transcription; assay type: cell-based; details: read-out: ED50, ER-mediated transcription
phospho-ERK = assay: Immunoblot of phospho-ERK accumulation in MCF7 cells; assay type: cell-based; details: 10 nM, about 15 minutes
Experimental: FIG. 9 illustrates that E2-HPY(530) treatment leads to the accumulation of phospho-ERK in MCF7 breast cancer cells. […] After about a 15 minute treatment, protein lysates were isolated for immunoblot analysis. The upper panel of […] was probed with pERK1/2 mAb (1:600, Santa Cruz Biotechnology) overnight at about 4° C. Lower panel was obtained after stripping the membrane and probing (1:3000) with Actin mAb overnight at about 4° C. Primary antibodies were visualized with horseradish peroxidase conjugated secondary antibodies.
FIG. 9 illustrates that E2-HPY(530) treatment leads to the accumulation of phospho-ERK in MCF7 breast cancer cells. […] Primary antibody raised against P-ERK was used to visualize p-ERK levels. Actin expression determined by Actin specific mAb was used as a loading control.

| Compound | logP [1] | spindle phenotype (HeLa cells) | pEC50 [2] | pEC50 [3] | accumulation of phospho-ERK (phospho-ERK) |
| --- | --- | --- | --- | --- | --- |
| F[B-]1(F)N2C=C(I)C=CC2=N[N+]1=C1c2ccccc2-c2ccccc21 [HPY(530)-Iodide, 2-(9H-fluoren-9-ylidene)-3,3-difluoro-6-iodo-2,3-dihydro-[1,2,4,3]triazaborolo[4,5-a]pyridin-2-ium-3-uide] | 0.79 | – | – | – | – |
| COc1ccc(C(SC[C@H](N)C(=O)NCCC#CC2=CN3C(=N[N+](=C(C)C)[B-]3(F)F)C=C2)(c2ccccc2)c2ccccc2)cc1 [3.3] | – | formed monopolar spindles | ~5.95 | – | – |
| C[C@]12CC[C@@H]3c4ccc(O)cc4CC[C@H]3[C@@H]1CC[C@@H]2O [E2, 17-β-estradiol] | – | – | – | 9.96 | resulted in the accumulation of phospho-ERK |
| COc1ccc(C(SC[C@H](N)C(=O)NCCC#CC2=CN3C(=N[N+](=C(C)C)[B-]3(OC)OC)C=C2)(c2ccccc2)c2ccccc2)cc1 [3.5] | – | formed monopolar spindles | ~5.99 | – | – |
